Assay [1] can be described thus: TRAIL sensitizers in caspase-8 expressing neuroblastoma cells, dose response, NB7 cells plus caspase-8, luminescence, panel (AID 652002). The following applies: NB7 neuroblastoma +caspase-8, no TRAIL, compound-alone cytotoxicity counter-screen, luminescence viability, NB7+Caspase-8. In general terms: Counterscreens check selectivity or assay interference.
In assay [2] the target is Tumor necrosis factor receptor superfamily member 10B (Homo sapiens) (UniProt O14763). The description is as above. The following applies: NB7 neuroblastoma +caspase-8, TRAIL sensitization, luminescence viability; NB7+Caspase-8; with TRAIL, mean of runs.
Sequence of Tumor necrosis factor receptor superfamily member 10B (Homo sapiens) (O14763 whole entry, looked up): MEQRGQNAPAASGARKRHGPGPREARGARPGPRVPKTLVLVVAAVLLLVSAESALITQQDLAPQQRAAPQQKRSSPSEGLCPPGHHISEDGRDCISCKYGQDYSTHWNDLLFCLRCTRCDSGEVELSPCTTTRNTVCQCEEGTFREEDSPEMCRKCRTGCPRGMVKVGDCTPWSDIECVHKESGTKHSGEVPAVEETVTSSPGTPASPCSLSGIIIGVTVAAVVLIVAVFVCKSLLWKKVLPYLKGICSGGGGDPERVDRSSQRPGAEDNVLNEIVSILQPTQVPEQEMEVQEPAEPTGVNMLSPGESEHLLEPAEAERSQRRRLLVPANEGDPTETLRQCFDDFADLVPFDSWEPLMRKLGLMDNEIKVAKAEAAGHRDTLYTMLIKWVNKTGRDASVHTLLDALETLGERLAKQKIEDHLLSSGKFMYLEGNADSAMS
The target in the next assay is NB7+Caspase-8. The description is as above. Particulars: NB7 neuroblastoma +caspase-8, TRAIL sensitization, luminescence viability, with TRAIL.
Where [3] appears, read: run 1, single replicate panel EC50.
Setting [4] is: run 2, single replicate panel EC50.

Calls of active or inactive are those of the source. No rule for the calls is given here.

Usually EC50 stands for the concentration at which the effect is half-maximal. `Cc1ccnc(NC(=O)Nc2ccc3c(c2)OCO3)c1`: the EC50 in assay [1] (mean of runs) is > 12.5 µM (inactive); in assay [1] (setting [3]), more than 12.5 µM; in assay [1] (setting [4]) it was more than 12.5 µM; in assay [2], > 12.5 µM (inactive); at NB7+Caspase-8 (setting [3]) it was more than 12.5 µM; at NB7+Caspase-8 (setting [4]) it was more than 12.5 µM.

As for `Fc1ccc(-c2cnn3c(-c4ccncc4)ccnc23)cc1`, the EC50 in assay [1] (mean of runs) is > 12.5 µM (inactive); in assay [1] (setting [3]), more than 12.5 µM; in assay [1] (setting [4]), more than 12.5 µM; in assay [2] it was > 12.5 µM (inactive); on NB7+Caspase-8 (setting [3]) it was more than 12.5 µM; at NB7+Caspase-8 (setting [4]), more than 12.5 µM.

Regarding `C/C(=N\NC(=O)c1n[nH]c2c1CCC2)c1ccco1`, the EC50 is > 12.5 µM (inactive) in assay [1] (mean of runs); more than 12.5 µM in assay [1] (setting [3]); more than 12.5 µM in assay [1] (setting [4]); > 12.5 µM (inactive) in assay [2]; more than 12.5 µM on NB7+Caspase-8 (setting [3]); more than 12.5 µM on NB7+Caspase-8 (setting [4]).

With `O=c1[nH]c(=S)[nH]c2c1C(c1ccc(Cl)c(Cl)c1)OC(CCc1ccccc1)C2` (stereo not drawn), the EC50 in assay [1] (mean of runs) is > 12.5 µM (inactive); in assay [1] (setting [3]) it was more than 12.5 µM; in assay [1] (setting [4]) it was more than 12.5 µM; in assay [2] it was > 12.5 µM (inactive); on NB7+Caspase-8 (setting [3]), more than 12.5 µM; at NB7+Caspase-8 (setting [4]), more than 12.5 µM.

As to `Cc1ccc2c(c1)C(=NC1CCCCC1)c1cc3ccccc3nc1-2`, the EC50 in assay [1] (mean of runs) is > 12.5 µM (inactive); in assay [1] (setting [3]) it was more than 12.5 µM; in assay [1] (setting [4]), more than 12.5 µM; in assay [2], > 12.5 µM (inactive); at NB7+Caspase-8 (setting [3]), more than 12.5 µM; on NB7+Caspase-8 (setting [4]), more than 12.5 µM.

With `COC(=O)CSc1nc2cc(C)ccc2cc1C#N`, the EC50 is > 12.5 µM (inactive) in assay [1] (mean of runs); more than 12.5 µM in assay [1] (setting [3]); more than 12.5 µM in assay [1] (setting [4]); more than 12.5 µM on NB7+Caspase-8 (setting [3]); 7.44 µM on NB7+Caspase-8 (setting [4]). For the same compound, the EC50 entry in assay [2] is “inactive”.

Consider `Cc1cc(NC(=O)c2cncc(Br)c2)ccc1NC(=O)c1cc2ccccc2o1`, for which the EC50 is > 12.5 µM (inactive) in assay [1] (mean of runs); more than 12.5 µM in assay [1] (setting [3]); more than 12.5 µM in assay [1] (setting [4]); more than 12.5 µM on NB7+Caspase-8 (setting [3]); 9.86 µM on NB7+Caspase-8 (setting [4]). Besides, the EC50 result in assay [2] was “inactive”.

Take `Cc1nc2cc(NC(=O)c3ccco3)ccc2n1C`: in assay [1] (mean of runs), the EC50 entry was “inactive”. Moreover, the EC50 in assay [1] (setting [3]) is more than 12.5 µM; in assay [1] (setting [4]), 11.5 µM; in assay [2], > 12.5 µM (inactive); at NB7+Caspase-8 (setting [3]) it was more than 12.5 µM; on NB7+Caspase-8 (setting [4]), more than 12.5 µM.

With `CC(C)(C)OC(=O)NCc1ccc(NC(=O)c2nc[nH]c2C(=O)N[C@@H](Cc2ccccc2)C(=O)OCc2ccccc2)cc1`, the EC50 in assay [1] (mean of runs) is > 12.5 µM (inactive); in assay [1] (setting [3]) it was more than 12.5 µM; in assay [1] (setting [4]), more than 12.5 µM; in assay [2], > 12.5 µM (inactive); on NB7+Caspase-8 (setting [3]) it was more than 12.5 µM; at NB7+Caspase-8 (setting [4]) it was more than 12.5 µM.

For `CCOc1ccc(-c2nnc(-c3ccccc3)o2)cc1`, the EC50 in assay [1] (mean of runs) is > 12.5 µM (inactive); in assay [1] (setting [3]) it was more than 12.5 µM; in assay [1] (setting [4]), more than 12.5 µM; on NB7+Caspase-8 (setting [3]), more than 12.5 µM; on NB7+Caspase-8 (setting [4]), 10.7 µM. For the same compound, the EC50 entry in assay [2] was “inactive”.

`CN(C)S(=O)(=O)c1ccc(C(=O)Nc2nnc(SCC(=O)NCC3CCCO3)s2)cc1` (stereo not drawn): the EC50 in assay [1] (mean of runs) was > 12.5 µM (inactive); in assay [1] (setting [3]), more than 12.5 µM; in assay [1] (setting [4]), more than 12.5 µM; in assay [2] it was > 12.5 µM (inactive); at NB7+Caspase-8 (setting [3]), more than 12.5 µM; at NB7+Caspase-8 (setting [4]), more than 12.5 µM.

Consider `O=C(Nc1ccc2[nH]ccc2c1)c1cccs1`, for which the EC50 result in assay [1] (mean of runs) and in assay [2] was “inactive” in each case. Further, the EC50 in assay [1] (setting [3]) was 7.12 µM; in assay [1] (setting [4]) it was 4.71 µM; on NB7+Caspase-8 (setting [3]), 3.97 µM; on NB7+Caspase-8 (setting [4]), 5.19 µM.

For `COc1cc(NC(=O)c2[nH]cnc2C(N)=O)cc(C(=O)Nc2cccc(C(F)(F)F)c2)c1`, the EC50 entry in assay [1] (mean of runs) and in assay [2] was “inactive” in each case. Further, the EC50 was more than 12.5 µM in assay [1] (setting [3]), 10.4 µM in assay [1] (setting [4]), more than 12.5 µM at NB7+Caspase-8 (setting [3]) and 8.91 µM on NB7+Caspase-8 (setting [4]).

The values are drawn from PubChem BioAssay AID652002 (Sanford-Burnham Center for Chemical Genomics, 2013).
